Earlier results in patent publication US8440424B2, “Identification of antibiotic resistance using labelled antibiotics” (miacom Diagnostics GmbH, priority 2008, dated 2013).
Read-outs that look alike come from different tables or passages of the source. Positions of bridges follow the written chain, without caps; N, C: chain ends. Non-standard residues stand in square brackets, D forms with d. Residues, ends and D or L forms follow the SMILES beside them. *: point of attachment. NMePhe(4-NMe2) = CN[C@@H](Cc1ccc(N(C)C)cc1)C(=O)O; Pip(4-oxo) = O=C1CCN[C@H](C(=O)O)C1; Picolinoyl(3-OH) = O=C(c1ncccc1O)*; Phg = N[C@H](C(=O)O)c1ccccc1; dAbu = CC[C@@H](N)C(=O)O

Tested on: 23S rRNA
Conditions: cited from earlier work
[1] = 23S rRNA position 2611 "C to G", Chlamydomonas reinhardtii, Harris et al. 1989
[2] = 23S rRNA position 2611 "C to U", Chlamydomonas reinhardtii, Harris et al. 1989

Question: For `C[C@H]1O[C@H](O[C@H]2CC[C@H](n3ccc(NC(=O)c4ccc(NC(=O)[C@@](C)(N)CO)cc4)nc3=O)O[C@@H]2C)[C@H](O)[C@@H](O)[C@@H]1N(C)C` [Amicetin], which Phenotype (23S rRNA position 2438 U to A, Halobacterium halobium, Leviev 1994) is on record?
Answer: Its Phenotype is “Amicetin resistance”.

Question: What about the Phenotype (23S rRNA position 2438 U to C, Halobacterium halobium, Leviev 1994) of the same compound?
Answer: The Phenotype was “Amicetin resistance”.

Question: For `COc1ccc(C[C@H]2NC[C@H](O)[C@H]2OC(C)=O)cc1` [Animosycin], which Phenotype (23S rRNA position 2452 C to U, Halobacterium, Hummel 1987) is on record?
Answer: The Phenotype was “Animosycin resistance”.

Question: And the Phenotype (23S rRNA position 2452 C to U, Tetrahymena thermophilia, Sweeney 1991)?
Answer: Its Phenotype is “Animosycin resistance”.

Question: With `COc1ccc(C[C@H]2NC[C@H](O)[C@H]2OC(C)=O)cc1` [Anisomycin] as the compound, how does the Phenotype (23S rRNA position 2447 G to C, Halobacterium halobium, Hummel 1987) read?
Answer: Its Phenotype is “resistance”.

Question: What about the Phenotype (23S rRNA position 2453 A to C, Halobacterium halobium, Hummel 1987) of the same compound?
Answer: The Phenotype was “Anisomycin resistance”.

Question: Which Phenotype (23S rRNA position 2505 G to C (with A1067U and thiostrepton), E. coli, Saarma 1992, 1993) does the source give for `O=C(N[C@H](CO)[C@H](O)c1ccc([N+](=O)[O-])cc1)C(Cl)Cl` [CAM] here?
Answer: Its Phenotype is “Hypersensitivity to CAM;”.

Question: Which Phenotype (23S rRNA position 2061 G to A, Rat mitochondria) does the source give for `O=C(N[C@H](CO)[C@H](O)c1ccc([N+](=O)[O-])cc1)C(Cl)Cl` [Chloramphenicol] here?
Answer: Its Phenotype is “resistance”.

Question: What about the Phenotype (23S rRNA position 2062 A to C, Halobacterium halobium) of the same compound?
Answer: Its Phenotype is “resistance”.

Question: And the Phenotype (23S rRNA position 2447 G to A, Yeast mitochondria, Dujon 1980)?
Answer: Its Phenotype is “resistance”.

Question: And the Phenotype (23S rRNA position 2451 A to U, Mouse mitochondria, Kearsey 1981)?
Answer: Its Phenotype is “resistance”.

Question: What about the Phenotype (23S rRNA position 2452 C to A, Human mitochondria, Blanc 1981) of the same compound?
Answer: The Phenotype was “resistance”.

Question: What about the Phenotype (23S rRNA position 2452 C to U, Halobacterium halobium, Mankin 1991) of the same compound?
Answer: The Phenotype was “resistance”.

Question: And the Phenotype (23S rRNA position 2452 C to U, Mouse mitochondria, Slott 1983)?
Answer: Its Phenotype is “resistance”.

Question: And the Phenotype (23S rRNA position 2503 A to C, Yeast mitochondria, Dujon 1980)?
Answer: The Phenotype was “resistance”.

Question: And the Phenotype (23S rRNA position 2504 U to C, Human mitochondria, Kearsey 1981)?
Answer: The Phenotype was “resistance”.

Question: And the Phenotype (23S rRNA position 2504 U to C, Mouse mitochondria, Blanc 1981)?
Answer: The Phenotype was “resistance”.

Question: Which Phenotype (23S rRNA position 2059 A to G, Helicobacter pylori) does the source give for `CC[C@H]1OC(=O)[C@H](C)[C@@H](O[C@H]2C[C@@](C)(OC)[C@@H](O)[C@H](C)O2)[C@H](C)[C@@H](O[C@@H]2O[C@H](C)C[C@H](N(C)C)[C@H]2O)[C@](C)(OC)C[C@@H](C)C(=O)[C@H](C)[C@@H](O)[C@]1(C)O` [Clarithomycin] here?
Answer: The Phenotype was “resistance”.

Question: Which Phenotype (23S rRNA position 2058 A to G, Helicobacter pylori) does the source give for `CC[C@H]1OC(=O)[C@H](C)[C@@H](O[C@H]2C[C@@](C)(OC)[C@@H](O)[C@H](C)O2)[C@H](C)[C@@H](O[C@@H]2O[C@H](C)C[C@H](N(C)C)[C@H]2O)[C@](C)(OC)C[C@@H](C)C(=O)[C@H](C)[C@@H](O)[C@]1(C)O` [Clarithromycin] here?
Answer: Its Phenotype is “resistance”.

Question: Which Phenotype (23S rRNA double mutation (A2058U/G2032A), E. coli) does the source give for `CC[C@H]1OC(=O)[C@H](C)[C@@H](O[C@H]2C[C@@](C)(OC)[C@@H](O)[C@H](C)O2)[C@H](C)[C@@H](O[C@@H]2O[C@H](C)C[C@H](N(C)C)[C@H]2O)[C@](C)(O)C[C@@H](C)C(=O)[C@H](C)[C@@H](O)[C@]1(C)O` [Ery] here?
Answer: The Phenotype was “hs”.

Question: What about the Phenotype (23S rRNA double mutation (G2032A/A2058U), E. coli) of the same compound?
Answer: Its Phenotype is “hs”.

Question: And the Phenotype (23S rRNA double mutation (G2057A/C2661U), E. coli)?
Answer: Its Phenotype is “Slightly Eryr;”.

Question: What about the Phenotype [1] of the same compound?
Answer: The Phenotype was “Eryr”.

Question: What about the Phenotype [2] of the same compound?
Answer: Its Phenotype is “Eryr”.

Question: And the Phenotype (23S rRNA position 2611 "C to U", double mutation (C2611U/G2057A), E. coli, Vester et al. 1995)?
Answer: The Phenotype was “Slightly Eryr; reduced”.

Question: For `CC[C@H]1OC(=O)[C@H](C)[C@@H](O[C@H]2C[C@@](C)(OC)[C@@H](O)[C@H](C)O2)[C@H](C)[C@@H](O[C@@H]2O[C@H](C)C[C@H](N(C)C)[C@H]2O)[C@](C)(O)C[C@@H](C)C(=O)[C@H](C)[C@@H](O)[C@]1(C)O` [Erythromycin], which Phenotype (23S rRNA double deletion (1230/1231), E. coli) is on record?
Answer: Its Phenotype is “Erythromycin sensitive. a Double”.

Question: And the Phenotype (23S rRNA double mutant (C1207U/C1243U), E. coli)?
Answer: Its Phenotype is “Erythromycin resistant. a Double”.

Question: What about the Phenotype (23S rRNA double mutant (C1208U/C1243U), E. coli) of the same compound?
Answer: Its Phenotype is “Erythromycin resistant. a Double”.

Question: What about the Phenotype (23S rRNA double mutant (C1211U/C1208U), E. coli) of the same compound?
Answer: Its Phenotype is “Erythromycin sensitive. a Double”.

Question: And the Phenotype (23S rRNA double mutant (C1221U/C1229U), E. coli)?
Answer: Its Phenotype is “Erythromycin resistant. a Double”.

Question: What about the Phenotype (23S rRNA double mutant (C1221U/C1233U), E. coli) of the same compound?
Answer: Its Phenotype is “Erythromycin resistant. a Double”.

Question: And the Phenotype (23S rRNA double mutant (C1243U/C1221U), E. coli)?
Answer: Its Phenotype is “Erythromycin resistant. a Double”.

Question: And the Phenotype (23S rRNA double mutant (G1220A/G1239A), E. coli)?
Answer: The Phenotype was “Erythromycin resistant. a Double”.

Question: And the Phenotype (23S rRNA double mutant (G1232A/G1238A), E. coli)?
Answer: Its Phenotype is “Erythromycin sensitive. a Double”.

Question: And the Phenotype (23S rRNA position 1233 C to U, E. coli)?
Answer: Its Phenotype is “Erythromycin sensitive. a”.

Question: And the Phenotype (23S rRNA position 1234 U to C, E. coli)?
Answer: Its Phenotype is “Erythromycin sensitive. a”.

Question: What about the Phenotype (23S rRNA position 1234 del1234/del1235, double mutant (U1234C/del1235), E. coli) of the same compound?
Answer: The Phenotype was “Erythromycin sensitive. a Double”.

Question: What about the Phenotype (23S rRNA position 2058 A to G, Yeast mitochondria) of the same compound?
Answer: Its Phenotype is “resistance”.

Question: And the Phenotype (23S rRNA position 2611 "C to G", Chlamydomonas reinhardtii, Gauthier et al. 1988)?
Answer: Its Phenotype is “spiramycin resistance”.

Question: What about the Phenotype (23S rRNA position 2611 "C to G", Yeast mitochondria, Sor and Fukahara 1984) of the same compound?
Answer: The Phenotype was “spiramycin resistance”.

Question: What does the source list for `CCC[C@@H]1C[C@@H](C(=O)N[C@@H]([C@H]2O[C@H](SC)[C@H](O)[C@@H](O)[C@H]2O)[C@@H](C)O)N(C)C1` [Lincomycin]?
Answer: Phenotype (23S rRNA position 2032 G to A, Tobbaco chloroplasts): resistance.; Phenotype (23S rRNA position 2058 A to G, Chlamydomonas reinhardtii): resistance.; Phenotype (23S rRNA position 2058 A to G, Solanum nigrum): resistance.; Phenotype (23S rRNA position 2058 A to G, Tobacco chloroplasts): resistance.; Phenotype (23S rRNA position 2059 A to G, Tobacco chloroplasts): resistance.

Question: For `CSC[S@+]([O-])C[C@H](CO)NC(=O)/C=C/c1c(C)[nH]c(=O)[nH]c1=O` [Sparsomycin], which Phenotype (23S rRNA position 2499 C to U, Halobacterium halobium, Tan 1996) is on record?
Answer: The Phenotype was “resistance”.

Question: Which Phenotype (23S rRNA position 2505 G to A, E. coli, Hansen 1999) does the source give for `O=C(N[C@H](CO)[C@H](O)c1ccc([N+](=O)[O-])cc1)C(Cl)Cl` [chloramphenicol] here?
Answer: Its Phenotype is “Conferred resistance to”.

Question: Which Phenotype (23S rRNA double mutant (A1262G/U2017C), E. coli, growth on erythromycin) does the source give for `CC[C@H]1OC(=O)[C@H](C)[C@@H](O[C@H]2C[C@@](C)(OC)[C@@H](O)[C@H](C)O2)[C@H](C)[C@@H](O[C@@H]2O[C@H](C)C[C@H](N(C)C)[C@H]2O)[C@](C)(O)C[C@@H](C)C(=O)[C@H](C)[C@@H](O)[C@]1(C)O` [erythromycin] here?
Answer: The Phenotype was “Wild-type growth on”.

Question: And the Phenotype (23S rRNA double mutant (A1262U/U2017A), E. coli, growth on erythromycin)?
Answer: Its Phenotype is “Wild-type growth on”.

Question: And the Phenotype (23S rRNA double mutant (G1137A/G1138C), E. coli, with 2058G and erythromycin, expressed from rrnB promoter)?
Answer: Its Phenotype is “lethal when expressed from rrnB”.

Question: What about the Phenotype (23S rRNA position 1068 G to A, E. coli, with 2058G, expressed from rrnB or pL promotor in presence of erythromycin) of the same compound?
Answer: The Phenotype was 2058G) Lethal when.

Question: What about the Phenotype (23S rRNA position 1072 C to U, E. coli, expressed from rrnB or pL promotor in presence of erythromycin) of the same compound?
Answer: Its Phenotype is “Lethal when expressed from”.

Question: And the Phenotype (23S rRNA position 1137 G to A, E. coli, with 2058G and erythromycin, expressed from rrnB promoter)?
Answer: The Phenotype was “lethal when expressed from rrnB”.

Question: What about the Phenotype (23S rRNA position 1138 G to C, E. coli, with 2058G and erythromycin, expressed from rrnB promoter) of the same compound?
Answer: The Phenotype was “lethal when expressed from rrnB”.

Question: And the Phenotype (23S rRNA position 1262 A to C, E. coli, with erythromycin)?
Answer: The Phenotype was “With erythromycin; lethal”.

Question: What about the Phenotype (23S rRNA position 1262 A to G, E. coli, with erythromycin) of the same compound?
Answer: The Phenotype was “With erythromycin; lethal”.

Question: Which Phenotype [1] does the source give for `CCC[C@@H]1C[C@@H](C(=O)N[C@@H]([C@H]2O[C@H](SC)[C@H](O)[C@@H](O)[C@H]2O)[C@@H](C)O)N(C)C1` [lincomycin] here?
Answer: The Phenotype was “low level”.

Question: And the Phenotype [2]?
Answer: Its Phenotype is “low level”.

Question: For `CC[C@H]1NC(=O)[C@@H](NC(=O)c2ncccc2O)[C@@H](C)OC(=O)[C@H](c2ccccc2)NC(=O)[C@@H]2CC(=O)CCN2C(=O)[C@H](Cc2ccc(N(C)C)cc2)N(C)C(=O)[C@@H]2CCCN2C1=O` [pristinamycin 1A] ({Picolinoyl(3-OH)}-T[dAbu]P[NMePhe(4-NMe2)][Pip(4-oxo)][Phg]; ester 1-C), which Phenotype (23S rRNA A2602C/C2501A, E. coli, binding on peptidyl transferase loop, Porse 1999) is on record?
Answer: Its Phenotype is “Inhibits binding of 1A”.

Question: And the Phenotype (23S rRNA U2500A/C2501A, E. coli, binding on peptidyl transferase loop, Porse 1999)?
Answer: Its Phenotype is “Inhibits binding of 1A”.

Question: For `CSC[S@+]([O-])C[C@H](CO)NC(=O)/C=C/c1c(C)[nH]c(=O)[nH]c1=O` [sparsomycin], which “Phenotype (level of resistance)” value (23S rRNA position 2452 C to U, Halobacterium halobium, Tan 1996) is on record?
Answer: The value was “Low level sparsomycin”.
